The test system of this experiment is P388 leukemia ip, CD2F1 mice, survival T/C. Description: NCI In Vivo Anticancer Drug Screen. Data for tumor model P388 Leukemia (intraperitoneal) in CD2F1 (CDF1) mice. To be noted: endpoint: median survival time, higher = longer survival. In outline:
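Mice carrying the transplanted tumor received test compound or vehicle. Survival was recorded in each group, and the value is the treated-group measurement divided by that of the vehicle-treated control group.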

The mark [1] stands for this setting: dose: 60.0 mg/kg/injection, schedule: Q01DX005 (ip), vehicle: saline with Tween-80.
Setting [2] is: dose: 120.0 mg/kg/injection, schedule: Q01DX005 (ip), vehicle: saline with Tween-80.
The mark [3] stands for this setting: dose: 240.0 mg/kg/injection, schedule: Q01DX005 (ip), vehicle: saline with Tween-80.
Where [4] appears, read: dose: 50.0 mg/kg/injection, schedule: Q01DX009 (ip), vehicle: saline with Tween-80.
The mark [5] stands for this setting: dose: 100.0 mg/kg/injection, schedule: Q01DX009 (ip), vehicle: saline with Tween-80.
Where [6] appears, read: dose: 200.0 mg/kg/injection, schedule: Q01DX009 (ip), vehicle: saline with Tween-80.
Where [7] appears, read: dose: 50.0 mg/kg/injection, schedule: Q01DX005 (ip), vehicle: saline with Tween-80.
Where [8] appears, read: dose: 100.0 mg/kg/injection, schedule: Q01DX005 (ip), vehicle: saline with Tween-80.
Where [9] appears, read: dose: 200.0 mg/kg/injection, schedule: Q01DX005 (ip), vehicle: saline with Tween-80.
Where [10] appears, read: dose: 50.0 mg/kg/injection, schedule: Q04DX002 (ip), vehicle: saline with Tween-80.
Setting [11] is: dose: 100.0 mg/kg/injection, schedule: Q04DX002 (ip), vehicle: saline with Tween-80.

The source of these data is PubChem BioAssay AID330 (DTP/NCI, 2004).

Where “and” joins values, the source holds several entries; their conditions need not be identical. Equal entries are not always repeated. Inconclusive results and toxic doses are left out.

For the compound `CC(C)CC(Nc1nncs1)Nc1nncs1`, the T/C by setting is: under setting [1], 96 % of control; under setting [2], 90 % of control; under setting [3], 100 % of control.

`COc1ccc(OC)c(NC(=O)N2CCCC2)c1`: the T/C by setting is: under setting [4], 100 % of control; under setting [5], 96 % of control; under setting [6], 96 % of control.

As for `OC(CCl)Cn1nnc2ccccc21` (stereo unspecified), the T/C under setting [7] is 103 % of control; the T/C under setting [8] is 100 % of control; the T/C (dose: 100.0 mg/kg/injection, schedule: Q04DX003 (ip), vehicle: saline with Tween-80) is 93 % of control; the T/C under setting [9] was 94 % of control; the T/C (dose: 200.0 mg/kg/injection, schedule: Q04DX003 (ip), vehicle: saline with Tween-80) is 98 % of control; the T/C (dose: 400.0 mg/kg/injection, schedule: Q04DX003 (ip), vehicle: saline with Tween-80) is 99 % of control.

For the compound `Cc1c(Cl)c2ccc(N(C)C)cc2[nH]c1=O`, the T/C was 95 % of control (dose: 50.0 mg/kg/injection, schedule: Q01DX009 (ip), vehicle: acid diluted with saline); 93 % of control (dose: 100.0 mg/kg/injection, schedule: Q01DX009 (ip), vehicle: acid diluted with saline); 89 % of control (dose: 200.0 mg/kg/injection, schedule: Q01DX009 (ip), vehicle: acid diluted with saline).

In the case of `CC(=O)C1=C(C)O/C(=C/c2cccc(Cl)c2)C1=O`, the T/C (dose: 12.5 mg/kg/injection, schedule: Q01DX005 (ip), vehicle: saline with Tween-80) is 107 % of control; the T/C (dose: 25.0 mg/kg/injection, schedule: Q01DX005 (ip), vehicle: saline with Tween-80) was 118 % of control; the T/C under setting [7] is 120 % of control and 121 % of control; the T/C under setting [8] is 118 % of control; the T/C under setting [9] was 119 % of control.

For the compound `O=C1C(C2CCCCC2)=C2OCC3COC2(O3)c2ccccc21` (stereo unspecified), the T/C is 102 % of control under setting [1], 105 % of control under setting [2] and 102 % of control under setting [3].

On to `COC(=O)C(CCCN)NC(=O)c1ccccc1` (stereo unspecified), for which the T/C is 99 % of control (dose: 50.0 mg/kg/injection, schedule: Q01DX005 (ip), vehicle: saline); 92 % of control (dose: 100.0 mg/kg/injection, schedule: Q01DX005 (ip), vehicle: saline); 90 % of control (dose: 200.0 mg/kg/injection, schedule: Q01DX005 (ip), vehicle: saline).

`NC(CO)(CO)CO`: under “dose: 1600.0 mg/kg/injection, schedule: Q01DX007 (ip), vehicle: saline”, the T/C is 121 % of control.

In the case of `C1CCC(N2OC23CCCCC3)CC1` (stereo unspecified), the T/C (dose: 25.0 mg/kg/injection, schedule: Q01DX009 (ip), vehicle: saline with Tween-80) was 113 % of control; the T/C under setting [4] is 117 % of control; the T/C under setting [5] was 123 % of control; the T/C under setting [6] was 113 % of control.

In the case of `O=NNc1ccc(Br)cn1`, the T/C was 100 % of control (dose: 1.5 mg/kg/injection, schedule: Q01DX008 (ip), vehicle: water); 115 % of control (dose: 1.56 mg/kg/injection, schedule: Q01DX009 (ip), vehicle: water); 154 % of control (dose: 6.25 mg/kg/injection, schedule: Q01DX008 (ip), vehicle: water); 184 % of control (dose: 12.5 mg/kg/injection, schedule: Q01DX009 (ip), vehicle: water); 181 % of control (dose: 25.0 mg/kg/injection, schedule: Q01DX008 (ip), vehicle: water).

With `Cc1ccc2nc(NC(=S)SSC(=S)Nc3nc4ccc(C)cc4s3)sc2c1`, the T/C was 107 % of control (dose: 6.25 mg/kg/injection, schedule: Q01DX009 (ip), vehicle: Klucel (hydroxypropylcellulose) (HPC)); 108 % of control (dose: 12.5 mg/kg/injection, schedule: Q01DX009 (ip), vehicle: Klucel (hydroxypropylcellulose) (HPC)); 94 % of control (dose: 25.0 mg/kg/injection, schedule: Q01DX009 (ip), vehicle: Klucel (hydroxypropylcellulose) (HPC)).

Regarding `O=Cc1c(-c2ccc(-c3ccccc3)cc2)nc2sccn12`, the T/C was 86 % of control (dose: 100.0 mg/kg/injection, schedule: Q01DX001 (ip), vehicle: Klucel (hydroxypropylcellulose) (HPC)); 89 % of control (dose: 200.0 mg/kg/injection, schedule: Q01DX001 (ip), vehicle: Klucel (hydroxypropylcellulose) (HPC)); 89 % of control (dose: 400.0 mg/kg/injection, schedule: Q01DX001 (ip), vehicle: Klucel (hydroxypropylcellulose) (HPC)).

As to `CCOP(=O)(O)SP(=O)(O)OCC`, the T/C (dose: 25.0 mg/kg/injection, schedule: Q01DX001 (ip), vehicle: saline) was 100 % of control; the T/C (dose: 50.0 mg/kg/injection, schedule: Q01DX001 (ip), vehicle: saline) was 102 % of control; the T/C (dose: 100.0 mg/kg/injection, schedule: Q01DX001 (ip), vehicle: saline) was 102 % of control and 100 % of control; the T/C (dose: 200.0 mg/kg/injection, schedule: Q01DX001 (ip), vehicle: saline) was 101 % of control; the T/C (dose: 400.0 mg/kg/injection, schedule: Q01DX001 (ip), vehicle: saline) was 101 % of control.

Consider `O=C(c1ccccc1)c1ccccc1NC(=O)C(F)(F)F`, for which the T/C by setting is: under setting [4], 100 % of control; under setting [5], 95 % of control; under setting [6], 96 % of control.

Turning to `COc1ccc(OC)c(N2C(=O)C(=O)C(C(C)=O)C2=O)c1` (stereo unspecified), the T/C is, setting by setting: (dose: 50.0 mg/kg/injection, schedule: Q01DX009 (ip), vehicle: Klucel (hydroxypropylcellulose) (HPC)) 107 % of control; (dose: 100.0 mg/kg/injection, schedule: Q01DX009 (ip), vehicle: Klucel (hydroxypropylcellulose) (HPC)) 101 % of control; (dose: 200.0 mg/kg/injection, schedule: Q01DX009 (ip), vehicle: Klucel (hydroxypropylcellulose) (HPC)) 105 % of control.

Consider `O=C1CC2CCC(CN2C(=O)OCc2ccccc2)O1` (stereo unspecified), for which the T/C was 102 % of control (dose: 60.0 mg/kg/injection, schedule: Q01DX005 (ip), vehicle: Klucel (hydroxypropylcellulose) (HPC)); 99 % of control (dose: 120.0 mg/kg/injection, schedule: Q01DX005 (ip), vehicle: Klucel (hydroxypropylcellulose) (HPC)); 100 % of control (dose: 240.0 mg/kg/injection, schedule: Q01DX005 (ip), vehicle: Klucel (hydroxypropylcellulose) (HPC)).

As to `N=C(N)c1ccc(/C=C/c2cc3ccc(C(=N)N)cc3[nH]2)cc1`, for the setting “dose: 6.25 mg/kg/injection, schedule: Q04DX003 (ip), vehicle: saline”, the T/C was 113 % of control.

Consider `Cc1cc(C)n(C2=NC3(c4ccc(Cl)cc4)NC(=O)NC3(c3ccc(Cl)cc3)N2)n1` (stereo unspecified), for which the T/C is 96 % of control under setting [10]; 97 % of control under setting [11]; 93 % of control (dose: 200.0 mg/kg/injection, schedule: Q04DX002 (ip), vehicle: saline with Tween-80).

As for `OC1(c2ccccc2)C2CC1C2` (stereo unspecified), the T/C (dose: 100.0 mg/kg/injection, schedule: Q04DX002 (ip), vehicle: saline) was 104 % of control; the T/C (dose: 200.0 mg/kg/injection, schedule: Q04DX002 (ip), vehicle: saline) is 101 % of control; the T/C (dose: 400.0 mg/kg/injection, schedule: Q04DX002 (ip), vehicle: saline) is 102 % of control.

Take `Cn1cc(CCC(=O)C2C=CC=CC2=NC(=O)CCCl)c2ccccc21` (stereo unspecified): the T/C is 107 % of control under setting [1], 101 % of control under setting [2] and 94 % of control under setting [3].

For the compound `CC(=O)OC1OC(C(OC(C)=O)C(Cl)Cl)OC1C(Cl)Cl` (stereo unspecified), the T/C was 97 % of control under setting [4], 105 % of control under setting [5] and 112 % of control under setting [6].

As for `CC(=O)OCC1OC(N(C(C)=O)c2nc(Cl)c3cc[nH]c3n2)C(OC(C)=O)C1OC(C)=O` (stereo unspecified), the T/C is, setting by setting: (dose: 25.0 mg/kg/injection, schedule: Q04DX003 (ip), vehicle: other) 102 % of control; (dose: 50.0 mg/kg/injection, schedule: Q04DX003 (ip), vehicle: other) 105 % of control; (dose: 100.0 mg/kg/injection, schedule: Q04DX003 (ip), vehicle: other) 105 % of control; (dose: 200.0 mg/kg/injection, schedule: Q04DX003 (ip), vehicle: other) 104 % of control; (dose: 400.0 mg/kg/injection, schedule: Q04DX003 (ip), vehicle: other) 108 % of control.

Take `CCOC(=O)CCC(CNC(=O)c1ccccc1)NC(=O)c1ccccc1` (stereo unspecified): the T/C under setting [1] was 98 % of control, the T/C under setting [2] is 90 % of control and the T/C under setting [3] is 88 % of control.

For the compound `NC(=S)n1nc(-c2ccccc2)c(N=Nc2ccc([N+](=O)[O-])cc2)c1-c1ccccc1`, the T/C is 100 % of control (dose: 25.0 mg/kg/injection, schedule: Q04DX002 (ip), vehicle: saline with Tween-80); 97 % of control under setting [10]; 87 % of control and 88 % of control under setting [11]; 92 % of control (dose: 400.0 mg/kg/injection, schedule: Q04DX002 (ip), vehicle: saline with Tween-80).
